Consider 27 molecules from patent US20260226019A1, “NEGATIVE ALLOSTERIC MODULATORS OF METABOTROPIC GLUTAMATE RECEPTOR 2” (Vanderbilt University, priority 2023, published 2026).

For assay [1], the target named is T1, human mGlu2 (Homo sapiens, UniProt Q14416).
T1 construct: expressed in transfected cells; host or cells: HEK-293 stably co-expressing GIRK channels
As to the kind of experiment: mGlu GIRK cell-based thallium flux assay, human mGlu2. As to conditions: HEK-293 cells co-expressing human mGlu2 and GIRK, EC80 glutamate, single experiment. The protocol:
(§1) Human embryonic kidney (HEK-293) cell lines stably co-expressing human or rat mGlu2 and G protein-coupled inwardly rectifying potassium (GIRK) channels, or human mGlu3 and GIRK, were used for in vitro evaluation of compound activity in thallium flux assay using a fluorescent thallium indicator dye.
(§2) The day before the assay, GIRK cells co-expressing human mGlu3, human or rat mGlu2, as described above, were plated in black-walled, clear-bottomed, amine-coated 384-well plates at a density of 15,000 cells/[…]/well in the assay medium (glutamine-depleted basal DMEM supplemented with 10% dialyzed FBS, 20 mM HEPES, 1 mM sodium pyruvate). Cells were incubated at 37° C. in the presence of 5% CO2. The next day, assay buffer (Hanks balanced salt solution, 20 mM HEPES, 4.16 mM sodium bicarbonate, pH 7.2) was prepared to dilute compounds and Thallos AM fluorescent dye solution. The 2× Thallos dye solution (final concentration 0.34 μM to the cells) was prepared by mixing the dye stock (2.97 mM in DMSO) to 1:1 with 10% pluronic acid before adding to the assay buffer. Cells were washed with assay buffer using a microplate washer to remove the medium, resulting in 20 μL of buffer remaining in each well. […] During the cell dye loading incubation period, a 10-point concentration serial dilution of compound was created from a 10 mM DMSO compound stock by performing a 1:3 serial dilution in DMSO using the Bravo liquid handler. The 2× compound plate was generated by transferring 0.24 μL of the diluted compound in each well to a daughter plate using an Echo acoustic liquid handler. This is further diluted in 40 μL assay buffer, resulting in a range from […] to 1.5 nM final concentration in the assay. The agonist plate (5×) was prepared to include EC80 glutamate concentration (a concentration to elicit 80% of a maximally effective glutamate concentration) in thallium buffer (125 mM sodium bicarbonate, 1 mM magnesium sulfate, 1.8 mM calcium sulfate, 5 mM glucose, 10 mM HEPES, pH 7.2, 12.5 mM thallium sulfate).
(§3) After dye-loading, cell plates were washed with assay buffer to remove excess extracellular dye using a microplate washer, resulting in 20 μL of buffer remaining in each well. After a ten-minute equilibration period, cell, compound and agonist plates were loaded into a Hamamatsu μCell kinetic imaging plate reader equipped with liquid handler to monitor fluorescence changes at 480 nm excitation and 540 nm emission settings. Briefly, after collection of baseline fluorescence, 20 μL of compound was added and incubated for two minutes and twenty seconds. This is immediately followed by adding 10 μL of glutamate-thallium buffer to the wells containing compound. The fluorescent signal was monitored an additional 2.5 minutes after the glutamate addition. Multiple reference wells containing no compound received either no glutamate (for a baseline reference), EC80 glutamate, or ECmax glutamate (for normalization to maximum response). […] Each compound concentration series occurred one time in each plate, and replicates from two or three plates were used in each experimental run. Thallium solutions were handled and disposed of according to guidelines from the Vanderbilt University Chemical Safety department.
(§4) Data were normalized using a static ratio function (F/F0) by dividing every fluorescent measurement by the initial fluorescent value for the corresponding well. The increase in signal resulting from the glutamate/thallium addition of the second add was measured by determining the slope from 3 seconds to 13 seconds after the addition. The average of all baseline slopes (no compound, no glutamate) was determined and this value was subtracted from all other slope values. The average of all ECmax slopes was determined and this value was used to normalize the baseline-corrected slopes to a percent max value (% Emax).

Assay [2] concerns the target T2, human mGlu3 (Homo sapiens, UniProt Q14832).
T2 construct: expressed in transfected cells; host or cells: HEK-293 stably co-expressing GIRK channels
As to the kind of experiment: mGlu GIRK cell-based thallium flux assay, human mGlu3. Particulars: HEK-293 cells co-expressing human mGlu3 and GIRK, EC80 glutamate, single experiment. The protocol: as §1, §2, §3, §4

T2 sequence (Q14832 23-879): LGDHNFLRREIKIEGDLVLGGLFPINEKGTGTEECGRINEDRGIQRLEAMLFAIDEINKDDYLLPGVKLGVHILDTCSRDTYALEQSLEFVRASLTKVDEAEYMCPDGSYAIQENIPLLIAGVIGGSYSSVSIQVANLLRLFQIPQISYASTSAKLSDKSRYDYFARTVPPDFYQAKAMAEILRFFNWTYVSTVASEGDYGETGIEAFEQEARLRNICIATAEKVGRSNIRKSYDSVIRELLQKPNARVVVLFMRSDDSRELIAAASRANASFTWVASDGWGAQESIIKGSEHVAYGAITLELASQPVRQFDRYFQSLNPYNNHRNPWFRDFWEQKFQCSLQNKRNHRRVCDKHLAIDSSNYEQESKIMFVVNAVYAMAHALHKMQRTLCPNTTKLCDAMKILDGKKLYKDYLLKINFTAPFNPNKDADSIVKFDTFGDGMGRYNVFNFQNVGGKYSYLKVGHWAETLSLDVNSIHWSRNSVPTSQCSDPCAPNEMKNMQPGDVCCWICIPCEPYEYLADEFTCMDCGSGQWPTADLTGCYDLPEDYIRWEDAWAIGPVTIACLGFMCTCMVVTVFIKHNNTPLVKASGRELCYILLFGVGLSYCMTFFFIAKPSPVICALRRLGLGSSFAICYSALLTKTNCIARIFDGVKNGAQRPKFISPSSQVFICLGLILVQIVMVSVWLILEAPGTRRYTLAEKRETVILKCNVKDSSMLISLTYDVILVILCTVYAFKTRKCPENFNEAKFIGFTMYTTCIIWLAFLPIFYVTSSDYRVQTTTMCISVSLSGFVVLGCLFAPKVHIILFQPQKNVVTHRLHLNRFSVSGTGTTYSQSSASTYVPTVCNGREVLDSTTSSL
T1 sequence (Q14416 19-872): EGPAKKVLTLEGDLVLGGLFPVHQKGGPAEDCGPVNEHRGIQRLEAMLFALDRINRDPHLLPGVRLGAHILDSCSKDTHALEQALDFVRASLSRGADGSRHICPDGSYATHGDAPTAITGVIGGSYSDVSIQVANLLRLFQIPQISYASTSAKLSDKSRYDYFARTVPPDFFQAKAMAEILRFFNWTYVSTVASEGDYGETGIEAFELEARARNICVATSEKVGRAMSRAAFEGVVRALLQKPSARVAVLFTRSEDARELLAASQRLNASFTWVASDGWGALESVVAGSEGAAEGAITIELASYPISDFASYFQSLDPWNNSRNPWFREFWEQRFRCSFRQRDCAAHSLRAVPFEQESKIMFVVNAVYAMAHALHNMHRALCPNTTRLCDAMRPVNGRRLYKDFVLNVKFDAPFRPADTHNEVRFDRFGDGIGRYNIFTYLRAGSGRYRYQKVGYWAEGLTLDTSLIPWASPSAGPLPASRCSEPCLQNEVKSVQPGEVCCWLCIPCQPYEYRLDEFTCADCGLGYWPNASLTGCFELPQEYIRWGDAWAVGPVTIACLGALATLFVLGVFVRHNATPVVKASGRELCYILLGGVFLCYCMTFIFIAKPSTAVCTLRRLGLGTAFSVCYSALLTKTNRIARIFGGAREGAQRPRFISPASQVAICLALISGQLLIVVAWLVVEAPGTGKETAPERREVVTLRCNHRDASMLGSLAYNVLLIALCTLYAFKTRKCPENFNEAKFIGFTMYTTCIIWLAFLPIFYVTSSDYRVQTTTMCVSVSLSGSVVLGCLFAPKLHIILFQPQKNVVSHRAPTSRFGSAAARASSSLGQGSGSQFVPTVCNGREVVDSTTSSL

For orientation: IC50 means the concentration needed to halve the response being measured. As to `Cc1ccc(-c2cc(-c3ccc(F)cc3F)cc3c2CNC3=O)cn1` [Compound 5, 6-(2,4-difluorophenyl)-4-(6-methylpyridin-3-yl)isoindolin-1-one], the 50% inhibitory concentration (IC50) in assay [1] is 0.099 µM; in assay [2] it was more than 10 µM.
For `CC(C)Cn1nccc1-c1cc(-c2ccc(F)cc2F)cc2c1CNC2=O` [Compound 76, 6-(2,4-difluorophenyl)-4-(1-isobutyl-1H-pyrazol-5-yl)isoindolin-1-one] the same measures were 0.179 µM and more than 10 µM.
For `Cc1nc(F)ccc1-c1cc(-c2ccc(F)cc2F)cc2c1CNC2=O` [Compound 72, 6-(2,4-difluorophenyl)-4-(6-fluoro-2-methylpyridin-3-yl)isoindolin-1-one], the IC50 was 0.104 µM in assay [1] and more than 10 µM in assay [2].
The corresponding values for `CC(C)Oc1ncccc1-c1cc(-c2ccc(F)cc2F)cc2c1CNC2=O` [Compound 75, 6-(2,4-difluorophenyl)-4-(2-isopropoxypyridin-3-yl)isoindolin-1-one] are 0.865 µM and more than 10 µM.
For `CSc1ncc(-c2cc(-c3ccc(F)cc3F)cc3c2CNC3=O)cn1` [Compound 39, 6-(2,4-difluorophenyl)-4-(2-(methylthio)pyrimidin-5-yl)isoindolin-1-one] the same measures were 0.555 µM and 3.96 µM.
The corresponding values for `O=C1NCc2c1cc(-c1ccc(F)cc1F)cc2-c1ccc(C2CC2)nc1` [Compound 36, 4-(6-cyclopropylpyridin-3-yl)-6-(2,4-difluorophenyl)isoindolin-1-one] are 1.23 µM and more than 10 µM.
In the case of `CN1CCCC(c2cc(-c3ccc(F)cc3F)cc3c2CNC3=O)C1` (stereo not drawn) [Compound B3, 6-(2,4-difluorophenyl)-4-(1-methylpiperidin-3-yl)isoindolin-1-one], the figures for the half-inhibitory concentration (IC50) in assay [1] and in assay [2] were 1.49 µM and more than 10 µM, respectively.
Take `N#CC1CCCN(c2cc(-c3ccc(F)cc3F)cc3c2CNC3=O)C1` (stereo not drawn) [Compound A10, 1-(6-(2,4-difluorophenyl)-1-oxoisoindolin-4-yl)piperidine-3-carbonitrile]: the IC50 in assay [1] was 0.386 µM; in assay [2] it was more than 10 µM.
`CC1(C)CN(c2cc(-c3ccc(F)cc3F)cc3c2CNC3=O)CC(C)(C)O1` [Compound A6, 6-(2,4-difluorophenyl)-4-(2,2,6,6-tetramethylmorpholino)isoindolin-1-one] registered an IC50 in assay [1] of 2.09 µM. Further, in assay [2], the “Human mGlu3 GIRK IC50 (nM)” value is “Inactive”.
For `O=C1NCc2c1cc(-c1ccc(F)cc1F)cc2-c1ccc[nH]c1=O` [Compound 64, 6-(2,4-difluorophenyl)-4-(2-oxo-1,2-dihydropyridin-3-yl)isoindolin-1-one] the same measures were 0.298 µM and “Inactive”.
For `CC1(C#N)CCN(c2cc(-c3ccc(F)cc3F)cc3c2CNC3=O)C1` (stereo not drawn) [Compound A7, 1-(6-(2,4-difluorophenyl)-1-oxoisoindolin-4-yl)-3-methylpyrrolidine-3-carbonitrile] the same measures were 0.361 µM and “Inactive”.
As for `O=C1NCc2c(CN3CCSCC3)cc(-c3ccc(F)cc3F)cc21` [Compound B1, 6-(2,4-difluorophenyl)-4-(thiomorpholinomethyl)isoindolin-1-one], the IC50 in assay [1] was found to be 0.18 µM; in assay [2] it was 4.62 µM.
In assay [1], `CC(C)(O)C1CCN(c2cc(-c3ccc(F)cc3F)cc3c2CNC3=O)C1` (stereo not drawn) [Compound A8, 6-(2,4-difluorophenyl)-4-(3-(2-hydroxypropan-2-yl)pyrrolidin-1-yl)isoindolin-1-one] gave an IC50 of 0.65 µM. Besides, the “Human mGlu3 GIRK IC50 (nM)” value in assay [2] is recorded as “Inactive”.
As for `O=C1NCc2c1cc(-c1ccc(F)cc1F)cc2-c1cccnc1N1CCCC1` [Compound 66, 6-(2,4-difluorophenyl)-4-(2-(pyrrolidin-1-yl)pyridin-3-yl)isoindolin-1-one], the IC50 in assay [1] is 0.528 µM; in assay [2] it was more than 10 µM.
For `CC1(C)CCN(c2cc(-c3ccc(F)cc3F)cc3c2CNC3=O)CC1` [Compound A16, 6-(2,4-difluorophenyl)-4-(4,4-dimethylpiperidin-1-yl)isoindolin-1-one] the same measures were 3.95 µM and more than 10 µM.
With `O=C1NCc2c1cc(-c1ccc(F)cc1F)cc2-c1ccc(F)nc1F` [Compound 73, 6-(2,4-difluorophenyl)-4-(2,6-difluoropyridin-3-yl)isoindolin-1-one], the figures for the IC50 in assay [1] and in assay [2] were 0.157 µM and more than 10 µM, respectively.
`CC(C)n1nccc1-c1cc(C2=CCOCC2)cc2c1CNC2=O` [Compound 86, 6-(3,6-dihydro-2H-pyran-4-yl)-4-(1-isopropyl-1H-pyrazol-5-yl)isoindolin-1-one]: in assay [1], the IC50 worked out at 0.175 µM. Moreover, the “Human mGlu3 GIRK IC50 (nM)” value in assay [2] was “Inactive”.
Consider `COC1CCCN(c2cc(-c3ccc(F)cc3F)cc3c2CNC3=O)C1` (stereo not drawn) [Compound A18, 6-(2,4-difluorophenyl)-4-(3-methoxypiperidin-1-yl)isoindolin-1-one], for which the concentration for half-maximal inhibition (IC50) in assay [1] was determined as 0.49 µM; in assay [2] it was 9.87 µM.
The corresponding values for `O=C1NCc2c1cc(-c1ccc(F)cc1F)cc2N1CCOCC1` [Compound A4, 6-(2,4-difluorophenyl)-4-morpholinoisoindolin-1-one] are 0.38 µM and more than 10 µM.
The corresponding values for `O=C1NCc2c1cc(-c1ccc(F)cc1F)cc2-c1ccc2nccn2c1` [Compound 38, 6-(2,4-difluorophenyl)-4-(imidazo[1,2-a]pyridin-6-yl)isoindolin-1-one] are 0.198 µM and 6.41 µM.
In assay [1], `Cn1cc(-c2cc(-c3ccc(F)cc3F)cc3c2CNC3=O)cn1` [Compound 19, 6-(2,4-difluorophenyl)-4-(1-methyl-1H-pyrazol-4-yl)isoindolin-1-one] showed a half-maximal inhibitory concentration (IC50) of 0.181 µM. Further, the “Human mGlu3 GIRK IC50 (nM)” value in assay [2] is given as “Inactive”.
As to `O=C1NCc2c(CN3CCOCC3)cc(-c3ccc(F)cc3F)cc21` [Compound B2, 6-(2,4-difluorophenyl)-4-(morpholinomethyl)isoindolin-1-one], the half-maximal inhibitory concentration (IC50) in assay [1] was 0.182 µM; in assay [2] it was more than 10 µM.
`O=C1NCc2c1cc(-c1ccc(F)cc1F)cc2-c1cnco1` [Compound 6, 6-(2,4-difluorophenyl)-4-(oxazol-5-yl)isoindolin-1-one] displayed a half-inhibitory concentration (IC50) in assay [1] of 0.066 µM. Besides, the “Human mGlu3 GIRK IC50 (nM)” value in assay [2] was “Inactive”.
Consider `O=C1NCc2c1cc(-c1ccc(F)cc1F)cc2C1CCNC1` (stereo not drawn) [Compound B6, 6-(2,4-difluorophenyl)-4-(pyrrolidin-3-yl)isoindolin-1-one], for which the IC50 in assay [1] and in assay [2] was more than 10 µM each time.
Regarding `CC(C)n1nccc1-c1cc(C2=CCC3(CC2)OCCO3)cc2c1CNC2=O` [Compound 87, 4-(1-isopropyl-1H-pyrazol-5-yl)-6-(1,4-dioxaspiro[4.5]dec-7-en-8-yl)isoindolin-1-one], in assay [1], the IC50 was determined as 3.81 µM. For the same molecule, in assay [2], the “Human mGlu3 GIRK IC50 (nM)” value is reported as “Inactive”.
`CC(=O)Nc1ccc(-c2cc(-c3ccc(F)cc3F)cc3c2CNC3=O)cn1` [Compound 34, N-(5-(6-(2,4-difluorophenyl)-1-oxoisoindolin-4-yl)pyridin-2-yl)acetamide] showed a half-inhibitory concentration (IC50) in assay [1] of 0.185 µM. Besides, in assay [2], the “Human mGlu3 GIRK IC50 (nM)” value is reported as “Inactive”.
On to `CC(C)Oc1cc(-c2cc3c(c(-c4cnsc4)c2)CNC3=O)ccc1C#N` [Compound 62, 2-isopropoxy-4-(7-(isothiazol-4-yl)-3-oxoisoindolin-5-yl)benzonitrile], for which, in assay [1], the “Human mGlu2 GIRK IC50 (nM)” value is given as “Inactive”. The molecule further had an IC50 in assay [2] of more than 10 µM.
